One data set deals with VCAM-1. Kind of data set: In Vitro VCAM-1 Assay (TNF-α stimulated endothelial cells, cell-surface ELISA). The conditions noted are these: primary human aortic (HAEC) or pulmonary (HPAEC) endothelial cells, TNF-α 1 ng/ml, approximately 16 hours, ELISA OD 450 nm. It is filed as cell-based. As for the experimental part: Cell Culture and compound dosing: Cultured primary human aortic (HAEC) or pulmonary (HPAEC) endothelial cells were obtained from Clonetics, Inc., and were used below passage 9. Cells were seeded in 96 well plates such that they would reach 90–95% confluency by the following day. On the following day the cells were stimulated with TNF-α (1 ng/ml) in the presence or absence of compounds dissolved in DMSO such that the final concentration of DMSO is 0.25% or less. To establish a dose curve for each compound, four concentrations in 2- to 5-fold increments were used. Cells were exposed to TNF-α and compounds for approximately 16 hours. The next day the cells were examined under microscope to score for visual signs of toxicity or cell stress.
Following 16 hr exposure to TNF-α and compound the media was discarded and the cells were washed once with Hanks Balanced Salt Solution (HBSS)/Phosphate buffered saline (PBS) (1:1). Primary antibodies against VCAM-1 (0.25 μg/ml in HBSS/PBS+5% FBS) were added and incubated for 30–60 minutes at 37° C. Cells were washed with HBSS/PBS three times, and secondary antibody Horse Radish Peroxidase (HRP)-conjugated goat anti-mouse IgG (1:500 in HBSS/PBS+5% FBS) were added and incubated for 30 minutes at 37° C. Cells were washed with HBSS/PBS four time and TMB substrate were added and incubated at room temperature in the dark until there was adequate development of blue color. The length of time of incubation was typically 5–15 minutes. 2N sulfuric acid was added to stop the color development and the data was collected by reading the absorbance on a BioRad ELISA plate reader at OD 450 nm. The results are expressed as IC50 values (the concentration (micromolar) of compound required to inhibit 50% of the maximal response of the control sample stimulated by TNF-α only).
Background: An ELISA detects its analyte on a solid surface through an enzyme-linked reagent.

Where [1] appears, read: Homo sapiens, Endothelial cell, 16 h.

Broadly, the IC50 is the concentration that gives 50% inhibition. The melting point is the temperature of the solid-liquid transition. Turning to `COc1cc(OC)c(-c2cccs2)cc1/C=C/C(=O)c1ccc(S(=O)(=O)NC(C)(C)C(=O)O)cc1` [Example 27, 2-{4-[3E-(2,4-Dimethoxy-5-thien-2-yl-phenyl)acryloyl]benzenesulfonylamino}-2-methylpropionic acid], the melting point is 205 °C (dec.). The same compound showed an IC50 with VCAM-1 (setting [1]) of less than 10 µM.

Compound `CNS(=O)(=O)c1ccc(C(=O)/C=C/c2cc(-c3cc4ccccc4n3C)c(OC)cc2OC)cc1` [Example 29, 4-{3E-[2,4-Dimethoxy-5-(1-methyl-1H-indol-2-yl)phenyl]acryloyl}-N-methyl-benzenesulfonamide] showed a melting point of 129 to 131 °C. Besides, in the data set on VCAM-1 (setting [1]), the half-inhibitory concentration (IC50) was less than 5 µM.

`CONS(=O)(=O)c1ccc(C(=O)/C=C/c2cc(-c3cc4ccccc4n3C)c(OC)cc2OC)cc1` [Example 30, 4-{3E-[2,4-Dimethoxy-5-(1-methyl-1H-indol-2-yl)phenyl]acryloyl}-N-methoxybenzenesulfonamide] showed a melting point of 214 to 216 °C. For the same compound, in the data set with VCAM-1 (setting [1]), the half-inhibitory concentration (IC50) was less than 10 µM.

Compound `COc1cc(OC)c(-c2cc3ccccc3n2C)cc1/C=C/C(=O)c1ccc(S(=O)(=O)N(C)C)cc1` [Example 31, 4-{3E-[2,4-Dimethoxy-5-(1-methyl-1H-indol-2-yl)phenyl]acryloyl}-N,N-dimethylbenzenesulfonamide] displayed a melting point of 120 to 122 °C. The same compound yielded a 50% inhibitory concentration (IC50) in the data set on VCAM-1 (setting [1]) of less than 10 µM.

Regarding `COc1cc(OC)c(-c2cc3ccccc3[nH]2)cc1/C=C/C(=O)c1ccc(S(=O)(=O)N(C)C)cc1` [Example 32, 4-{3E-[5-(1H-Indol-2-yl)-2,4-dimethoxyphenyl]acryloyl}-N,N-dimethylbenzenesulfonamide], the melting point lay in the range of 158 to 162 °C. Moreover, in the data set with VCAM-1 (setting [1]), the concentration for half-maximal inhibition (IC50) is less than 5 µM.

As to `COc1cc(OC)c(-c2cc3ccccc3n2C)cc1/C=C/C(=O)c1ccc(S(=O)(=O)NO[Si](C)(C)C(C)(C)C)cc1` [Example 33, 4-{3E-[2,4-Dimethoxy-5-(1-methyl-1H-indol-2-yl)phenyl]acryloyl}-N-(tert-butyldimethylsiloxy)benzenesulfonamide], the melting point fell in the range of 129 to 131 °C. The IC50 in the data set on VCAM-1 (Endothelial cell) was greater than 10 µM.

`COc1cc(OC)c(-c2cc3ccccc3n2C)cc1/C=C/C(=O)c1ccc(S(=O)(=O)NO)cc1` [Example 34, 4-{3E-[2,4-Dimethoxy-5-(1-methyl-1H-indol-2-yl)phenyl]acryloyl}-N-hydroxybenzenesulfonamide] returned a melting point greater than 260 °C. In addition, the half-inhibitory concentration (IC50) in the data set on VCAM-1 (setting [1]) was greater than 10 µM.

Consider `COc1cc(OC)c(-c2cc3ccccc3[nH]2)cc1/C=C/C(=O)c1ccc(S(=O)(=O)NC(=O)C(C)C)cc1` [Example 35, 4-{3E-[5-(1H-Indol-2-yl)-2,4-dimethoxyphenyl]acryloyl}-N-isobutyrylbenzenesulfonamide], for which the melting point was 243 to 245 °C (dec.). The IC50 with VCAM-1 (setting [1]) is less than 5 µM.

In turn, `CCCC(=O)NS(=O)(=O)c1ccc(C(=O)/C=C/c2cc(-c3cc4ccccc4n3C)c(OC)cc2OC)cc1` [Example 37, N-Butyryl-4-{3E-[2,4-dimethoxy-5-(1-methyl-1H-indol-2-yl)phenyl]acryloyl}benzenesulfonamide] came in with a melting point of 144 to 146 °C. This compound also showed a half-maximal inhibitory concentration (IC50) with VCAM-1 (setting [1]) of less than 5 µM.

For `COc1cc(OC)c(N2CCCC2)cc1/C=C/C(=O)c1ccc(S(=O)(=O)Nc2cc(C)on2)cc1` [Example 38, 4-[3E-(2,4-Dimethoxy-5-pyrrolidin-1-yl-phenyl)acryloyl]-N-(5-methyl-isoxazol-3-yl)benzenesulfonamide], the melting point was 164 to 165 °C. For the same compound, in the data set with VCAM-1 (setting [1]), the IC50 is less than 5 µM.

With `COc1cc(OCCCO)c(/C=C/C(=O)c2ccc(S(=O)(=O)Nc3cc(C)on3)cc2)cc1-c1cccs1` [Example 39, 4-{3E-[2-(3-Hydroxy-propoxy)-4-methoxy-5-thien-2-ylphenyl]acryloyl}-N-(5-methylisoxazol-3-yl)benzenesulfonamide], the melting point was in the range of 178 to 182 °C. Moreover, in the data set with VCAM-1 (setting [1]), the IC50 is less than 5 µM.

`COc1cc(OC)c(-c2cc3ccccc3[nH]2)cc1/C=C/C(=O)c1ccc(S(=O)(=O)NC(C)=O)cc1` [Example 42, N-Acetyl-4-{3E-[5-(1H-indol-2-yl)-2,4-dimethoxyphenyl]acryloyl}benzenesulfonamide]: the melting point fell in the range of 218 to 220 °C. The concentration for half-maximal inhibition (IC50) in the data set with VCAM-1 (setting [1]) was greater than 10 µM.

With `COc1cc(OC)c(-c2cc3ccccc3[nH]2)cc1/C=C/C(=O)c1ccc(S(=O)(=O)[N-]C(C)=O)cc1.[Na+]` [Example 43, N-Acetyl-4-{3E-[5-(1H-indol-2-yl)-2,4-dimethoxyphenyl]acryloyl}benzenesulfonamide sodium salt], the melting point was 240 to 250 °C. In addition, the IC50 in the data set on VCAM-1 (sodium salt) is less than 5 µM.

As for `COc1cc(OC)c(-c2cccn2C)cc1/C=C/C(=O)c1ccc(S(=O)(=O)Nc2cc(C)on2)cc1` [Example 44, 4-{3E-[2,4-Dimethoxy-5-(1-methyl-1H-pyrrol-2-yl)phenyl]acryloyl}-N-(5-methyl-isoxazol-3-yl)benzenesulfonamide], the melting point was in the range of 113 to 115 °C. The concentration for half-maximal inhibition (IC50) with VCAM-1 (setting [1]) is less than 5 µM.

Consider `CCC(=O)NS(=O)(=O)c1ccc(C(=O)/C=C/c2cc(-c3cc4ccccc4[nH]3)c(OC)cc2OC)cc1` [Example 45, 4-{3E-[5-(1H-Indol-2-yl)-2,4-dimethoxyphenyl]acryloyl}-N-propionyl-benzenesulfonamide], for which the melting point lay in the range of 223 to 225 °C. Moreover, the half-maximal inhibitory concentration (IC50) with VCAM-1 (setting [1]) was less than 5 µM.

On to `COc1cc(OC)c(-c2cc3ccccc3[nH]2)cc1/C=C/C(=O)c1ccc(S(=O)(=O)NCCCn2ccnc2)cc1` [Example 50, N-(3-Imidazol-1-yl-propyl)-4-{3E-[5-(1H-indol-2-yl)-2,4-dimethoxy-phenyl]acryloyl}benzenesulfonamide], for which the melting point fell in the range of 197 to 200 °C. Also, the half-maximal inhibitory concentration (IC50) in the data set with VCAM-1 (setting [1]) was greater than 10 µM.

`COc1cc(OC)c(-c2cc3ccccc3[nH]2)cc1/C=C/C(=O)c1ccc(S(=O)(=O)NCC(=O)O)cc1` [Example 51, (4-{3E-[5-(1H-Indol-2-yl)-2,4-dimethoxyphenyl]acryloyl}benzenesulfonylamino)acetic acid]: the melting point was in the range of 189 to 190 °C. The compound also yielded a half-inhibitory concentration (IC50) with VCAM-1 (setting [1]) greater than 10 µM.

`COc1cc(OC)c(N2CCCC2)cc1/C=C/C(=O)c1ccc(S(=O)(=O)Nc2ccccn2)cc1` [Example 52, 4-[3E-(2,4-Dimethoxy-5-pyrrolidin-1-yl-phenyl)-acryloyl]-N-pyridin-2-yl-benzenesulfonamide] registered a melting point of 124 to 128 °C. Further, the concentration for half-maximal inhibition (IC50) in the data set on VCAM-1 (setting [1]) was less than 5 µM.

`COc1cc(OC)c(N2CCCC2)cc1/C=C/C(=O)c1ccc(S(=O)(=O)NCc2ccccn2)cc1` [Example 53, 4-[3E-(2,4-Dimethoxy-5-pyrrolidin-1-ylphenyl)acryloyl]-N-pyridin-2-ylmethylbenzenesulfonamide]: the melting point was in the range of 112 to 116 °C. In addition, the IC50 with VCAM-1 (setting [1]) was less than 5 µM.

On to `COc1cc(OC)c(N2CCCC2)cc1/C=C/C(=O)c1ccc(S(=O)(=O)NCCCn2ccnc2)cc1` [Example 54, 4-[3E-(2,4-Dimethoxy-5-pyrrolidin-1-ylphenyl)acryloyl]-N-(3-imidazol-1-ylpropyl)benzenesulfonamide], for which the melting point was 140 to 143 °C. The compound further registered an IC50 in the data set on VCAM-1 (setting [1]) greater than 5 µM.

In the case of `COc1cc(OC)c(N2CCCC2)cc1/C=C/C(=O)c1ccc(S(=O)(=O)NCCCN2CCN(C)CC2)cc1` [Example 55, 4-[3E-(2,4-Dimethoxy-5-pyrrolidin-1-ylphenyl)acryloyl]-N-[3-(4-methyl-piperazin-1-yl)propyl]benzenesulfonamide], the melting point fell in the range of 64 to 68 °C. In addition, in the data set with VCAM-1 (setting [1]), the half-inhibitory concentration (IC50) was greater than 10 µM.

As for `COc1cc(OC)c(N2CCCC2)cc1/C=C/C(=O)c1ccc(S(=O)(=O)NCC(=O)O)cc1` [Example 56, {4-[3E-(2,4-Dimethoxy-5-pyrrolidin-1-ylphenyl)acryloyl]benzenesulfonylamino}acetic acid], the melting point is 155 to 158 °C. In addition, the IC50 in the data set with VCAM-1 (setting [1]) is greater than 10 µM.

Take `COc1cc(OC)c(-c2cc3ccccc3[nH]2)cc1/C=C/C(=O)c1ccc(S(=O)(=O)Nc2ccccn2)cc1` [Example 57, 4-{3E-[5-(1H-Indol-2-yl)-2,4-dimethoxyphenyl]acryloyl}-N-pyridin-2-ylbenzenesulfonamide]: the melting point lay within 206 to 208 °C. The compound also gave an IC50 in the data set on VCAM-1 (setting [1]) of less than 5 µM.

The record behind these values is patent publication US7173129B2, “Sulfonamide-substituted chalcone derivatives and their use to treat diseases” (Athero Genics, Inc., priority 2003, dated 2007).
